Experimental data reported in ChEMBL document CHEMBL2010689 (J Med Chem, 2012).
Calls of active or inactive are those of the source. No cut-off for these calls is given here.

Key:
[1] = molecular target: Voltage-gated inwardly rectifying potassium channel KCNH2 (Homo sapiens, UniProt Q12809); experiment: Inhibition of human Erg expressed CHO cells; format: cell-based
[2] = Plasma protein binding in human; format: ADME, cell-free; settings: read-out: PPB (converted)
[3] = system: A-375; experiment: Antitumor activity against human A375 cells xenografted in po dosed athymic nude mouse assessed as tumor growth inhibition bid measured on day 29 relative to control; format: functional; settings: A-375, po, 696 h, read-out: MED
[4] = Antitumor activity against human U251MG cells xenografted in po dosed athymic nude mouse assessed as tumor growth inhibition bid measured on day 29 relative to control; format: functional; settings: U-251, po, 696 h, read-out: MED
[5] = Antitumor activity against human U251MG cells xenografted in athymic nude mouse assessed as tumor growth inhibition at 1 mg/kg, po bid measured on day 29 relative to control; format: functional; settings: U-251, 696 h, read-out: GI
[6] = Volume of distribution in Sprague-Dawley rat at 0.8 mg/kg, iv; format: ADME, organism-based; set-up: dose 0.8 mg/kg, route intravenous; settings: in vivo
[7] = Antiangiogenic activity in HMVEC assessed as inhibition of FGF-induced migration; format: functional; settings: Homo sapiens
[8] = Antiangiogenic activity in BAEC assessed as inhibition of VEGF-induced proliferation; format: functional; settings: Bos taurus
[9] = system: HUVEC; experiment: Cytotoxicity against angiopoietin 1-stimulated HUVEC at > = 50 nM; format: cell-based; settings: human
[10] = molecular target: Proto-oncogene tyrosine-protein kinase receptor Ret (Homo sapiens, UniProt P07949); experiment: Inhibition of human RET using ATP as substrate
Proto-oncogene tyrosine-protein kinase receptor Ret, sequence (P07949 whole entry): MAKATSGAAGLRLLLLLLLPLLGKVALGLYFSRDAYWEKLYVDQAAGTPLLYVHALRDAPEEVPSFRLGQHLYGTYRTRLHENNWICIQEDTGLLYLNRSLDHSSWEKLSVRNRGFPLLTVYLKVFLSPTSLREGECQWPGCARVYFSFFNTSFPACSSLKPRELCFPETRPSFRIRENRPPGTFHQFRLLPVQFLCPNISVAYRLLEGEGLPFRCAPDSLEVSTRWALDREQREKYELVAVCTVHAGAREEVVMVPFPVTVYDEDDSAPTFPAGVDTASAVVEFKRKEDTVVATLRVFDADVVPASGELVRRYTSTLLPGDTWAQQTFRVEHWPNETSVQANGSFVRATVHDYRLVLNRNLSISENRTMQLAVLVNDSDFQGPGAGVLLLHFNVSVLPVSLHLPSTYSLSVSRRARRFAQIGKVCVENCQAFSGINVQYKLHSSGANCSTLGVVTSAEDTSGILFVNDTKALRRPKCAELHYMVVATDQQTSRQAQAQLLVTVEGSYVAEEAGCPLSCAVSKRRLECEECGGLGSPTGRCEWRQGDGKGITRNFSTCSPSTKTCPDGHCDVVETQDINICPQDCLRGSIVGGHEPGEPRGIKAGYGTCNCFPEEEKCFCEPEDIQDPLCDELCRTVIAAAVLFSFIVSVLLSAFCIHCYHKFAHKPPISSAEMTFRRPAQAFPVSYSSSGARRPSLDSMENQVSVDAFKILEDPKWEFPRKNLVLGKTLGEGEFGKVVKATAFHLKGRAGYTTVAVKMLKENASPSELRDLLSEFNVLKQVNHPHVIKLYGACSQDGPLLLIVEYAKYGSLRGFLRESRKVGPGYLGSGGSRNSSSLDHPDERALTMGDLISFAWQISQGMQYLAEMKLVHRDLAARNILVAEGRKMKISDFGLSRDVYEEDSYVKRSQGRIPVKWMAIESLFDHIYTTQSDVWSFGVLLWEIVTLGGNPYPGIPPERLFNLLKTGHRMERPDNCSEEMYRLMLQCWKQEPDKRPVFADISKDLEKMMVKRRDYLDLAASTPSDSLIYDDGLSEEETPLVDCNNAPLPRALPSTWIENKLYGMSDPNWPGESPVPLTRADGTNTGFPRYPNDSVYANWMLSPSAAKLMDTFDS

[11] = molecular target: Proto-oncogene tyrosine-protein kinase Src (Homo sapiens, UniProt P12931); experiment: Inhibition of human cSrc using ATP as substrate
Proto-oncogene tyrosine-protein kinase Src, sequence (P12931 2-536 limits assumed): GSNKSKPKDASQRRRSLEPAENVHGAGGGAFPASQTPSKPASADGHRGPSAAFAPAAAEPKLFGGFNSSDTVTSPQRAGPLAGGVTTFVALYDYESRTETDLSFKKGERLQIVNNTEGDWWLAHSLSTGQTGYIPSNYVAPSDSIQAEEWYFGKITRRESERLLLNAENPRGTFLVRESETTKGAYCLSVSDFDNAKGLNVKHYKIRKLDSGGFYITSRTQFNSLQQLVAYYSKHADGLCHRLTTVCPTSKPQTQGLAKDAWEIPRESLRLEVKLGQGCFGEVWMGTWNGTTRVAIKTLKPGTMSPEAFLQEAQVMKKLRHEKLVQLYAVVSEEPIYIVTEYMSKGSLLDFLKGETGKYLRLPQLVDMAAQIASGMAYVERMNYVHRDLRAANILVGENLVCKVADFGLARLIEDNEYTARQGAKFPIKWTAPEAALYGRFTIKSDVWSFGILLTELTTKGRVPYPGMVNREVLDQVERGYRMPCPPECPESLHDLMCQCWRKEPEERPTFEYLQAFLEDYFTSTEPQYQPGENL

[12] = Terminal half life in Sprague-Dawley rat at 0.8 mg/kg, iv; format: ADME, organism-based; set-up: dose 0.8 mg/kg, route intravenous; settings: in vivo, read-out: beta t1/2 (converted)
[13] = system: A-375; experiment: Antitumor activity against human A375 cells xenografted in athymic nude mouse assessed as tumor growth inhibition at 1 mg/kg, po bid measured on day 29 relative to control; format: functional; settings: A-375, 696 h, read-out: GI
[14] = AUC in Sprague-Dawley rat at 5 mg/kg, po; format: ADME, organism-based; set-up: dose 5 mg/kg, route oral; settings: plasma
[15] = system: HUVEC; experiment: Antiangiogenic activity in HUVEC assessed as inhibition of VEGF-induced proliferation; format: functional, cell-based; settings: Homo sapiens
[16] = Antitumor activity against human U251MG cells xenografted in athymic nude mouse assessed as tumor growth inhibition at 30 mg/kg, po bid measured on day 29 relative to control; format: functional; settings: U-251, 696 h, read-out: GI
[17] = system: A-375; experiment: Antitumor activity against human A375 cells xenografted in athymic nude mouse assessed as complete tumor regression at 1 mg/kg, po bid; format: functional
[18] = molecular target: Aurora kinase A (Homo sapiens, UniProt O14965); experiment: Inhibition of human Aurora-A using ATP as substrate
Aurora kinase A, sequence (O14965 whole entry): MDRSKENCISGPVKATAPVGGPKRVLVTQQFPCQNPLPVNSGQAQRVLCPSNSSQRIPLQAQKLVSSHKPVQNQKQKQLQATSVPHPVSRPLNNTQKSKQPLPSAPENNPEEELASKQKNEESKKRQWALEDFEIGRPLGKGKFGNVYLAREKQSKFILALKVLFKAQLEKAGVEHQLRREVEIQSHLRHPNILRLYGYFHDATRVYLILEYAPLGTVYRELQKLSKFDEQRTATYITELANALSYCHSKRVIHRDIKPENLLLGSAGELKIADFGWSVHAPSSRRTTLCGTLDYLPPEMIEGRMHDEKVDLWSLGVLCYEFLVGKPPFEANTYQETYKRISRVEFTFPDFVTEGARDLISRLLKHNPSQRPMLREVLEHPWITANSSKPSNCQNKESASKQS

[19] = system: Aorta; experiment: Cytotoxicity against rat aortic rings; format: tissue-based
[20] = Antitumor activity against human U251MG cells xenografted in athymic nude mouse assessed as partial tumor regression at 1 mg/kg, po bid; format: functional, U-251
[21] = molecular target: Substance-P receptor (Homo sapiens) (UniProt P25103); experiment: Inhibition of neurokinin NK1 receptor at 10 uM
Substance-P receptor (Homo sapiens), sequence (P25103 whole entry): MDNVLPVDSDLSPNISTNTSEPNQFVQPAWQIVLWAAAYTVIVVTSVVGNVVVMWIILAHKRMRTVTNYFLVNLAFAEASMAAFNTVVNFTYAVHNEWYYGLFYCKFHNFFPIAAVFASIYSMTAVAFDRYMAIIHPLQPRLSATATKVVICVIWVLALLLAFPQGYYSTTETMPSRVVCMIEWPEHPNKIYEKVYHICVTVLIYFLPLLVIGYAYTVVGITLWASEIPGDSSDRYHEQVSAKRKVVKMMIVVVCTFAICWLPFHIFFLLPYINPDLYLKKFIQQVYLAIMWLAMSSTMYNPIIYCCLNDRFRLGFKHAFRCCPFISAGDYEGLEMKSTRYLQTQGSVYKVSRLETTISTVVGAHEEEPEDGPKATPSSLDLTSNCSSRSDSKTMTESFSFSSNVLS

[22] = Volume of distribution in cynomolgus monkey at 0.5 mg/kg, iv; format: ADME, organism-based, Macaca fascicularis; set-up: dose 0.5 mg/kg, route intravenous; settings: in vivo
[23] = Antitumor activity against human U251MG cells xenografted in athymic nude mouse assessed as tumor growth inhibition at 3 mg/kg, po bid measured on day 29 relative to control; format: functional; settings: U-251, 696 h, read-out: GI
[24] = molecular target: Tyrosine-protein kinase JAK2 (Homo sapiens) (UniProt O60674); experiment: Inhibition of JAK2 at 1 uM
Tyrosine-protein kinase JAK2 (Homo sapiens), sequence (O60674 whole entry): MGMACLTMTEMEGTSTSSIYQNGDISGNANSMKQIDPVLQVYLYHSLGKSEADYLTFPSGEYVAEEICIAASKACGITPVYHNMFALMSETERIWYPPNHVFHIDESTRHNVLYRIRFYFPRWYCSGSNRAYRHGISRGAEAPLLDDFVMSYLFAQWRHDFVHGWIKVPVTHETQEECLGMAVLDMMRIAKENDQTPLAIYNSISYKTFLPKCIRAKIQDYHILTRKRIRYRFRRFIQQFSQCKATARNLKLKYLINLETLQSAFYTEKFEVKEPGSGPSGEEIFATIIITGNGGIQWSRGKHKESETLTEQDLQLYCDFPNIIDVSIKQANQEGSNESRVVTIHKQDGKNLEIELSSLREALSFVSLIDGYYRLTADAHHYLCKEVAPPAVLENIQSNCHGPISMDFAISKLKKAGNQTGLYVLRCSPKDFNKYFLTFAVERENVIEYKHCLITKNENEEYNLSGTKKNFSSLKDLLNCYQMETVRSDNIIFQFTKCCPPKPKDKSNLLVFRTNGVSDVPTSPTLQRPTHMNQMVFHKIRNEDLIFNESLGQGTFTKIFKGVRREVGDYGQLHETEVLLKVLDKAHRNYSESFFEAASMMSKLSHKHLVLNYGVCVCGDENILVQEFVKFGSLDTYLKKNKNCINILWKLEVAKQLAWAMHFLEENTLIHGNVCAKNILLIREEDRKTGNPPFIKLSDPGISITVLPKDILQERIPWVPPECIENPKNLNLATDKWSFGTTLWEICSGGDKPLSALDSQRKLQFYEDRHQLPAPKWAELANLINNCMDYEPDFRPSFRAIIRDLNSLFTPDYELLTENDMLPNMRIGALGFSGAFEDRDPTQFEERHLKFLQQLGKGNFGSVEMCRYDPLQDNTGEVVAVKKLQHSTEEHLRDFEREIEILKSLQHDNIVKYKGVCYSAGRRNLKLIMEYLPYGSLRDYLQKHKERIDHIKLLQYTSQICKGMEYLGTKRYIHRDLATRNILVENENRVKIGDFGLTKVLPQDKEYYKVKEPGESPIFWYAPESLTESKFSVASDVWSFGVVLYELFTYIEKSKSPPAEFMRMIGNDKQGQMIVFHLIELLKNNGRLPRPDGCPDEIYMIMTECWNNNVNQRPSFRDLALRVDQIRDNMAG

[25] = system: A-375; experiment: Antitumor activity against human A375 cells xenografted in athymic nude mouse assessed as tumor growth inhibition at 3 mg/kg, po bid measured on day 29 relative to control; format: functional; settings: A-375, 696 h, read-out: GI
[26] = molecular target: Vascular endothelial growth factor receptor 1 (Homo sapiens, UniProt P17948); experiment: Inhibition of human VEGFR1 using ATP as substrate
Vascular endothelial growth factor receptor 1, sequence (P17948 whole entry): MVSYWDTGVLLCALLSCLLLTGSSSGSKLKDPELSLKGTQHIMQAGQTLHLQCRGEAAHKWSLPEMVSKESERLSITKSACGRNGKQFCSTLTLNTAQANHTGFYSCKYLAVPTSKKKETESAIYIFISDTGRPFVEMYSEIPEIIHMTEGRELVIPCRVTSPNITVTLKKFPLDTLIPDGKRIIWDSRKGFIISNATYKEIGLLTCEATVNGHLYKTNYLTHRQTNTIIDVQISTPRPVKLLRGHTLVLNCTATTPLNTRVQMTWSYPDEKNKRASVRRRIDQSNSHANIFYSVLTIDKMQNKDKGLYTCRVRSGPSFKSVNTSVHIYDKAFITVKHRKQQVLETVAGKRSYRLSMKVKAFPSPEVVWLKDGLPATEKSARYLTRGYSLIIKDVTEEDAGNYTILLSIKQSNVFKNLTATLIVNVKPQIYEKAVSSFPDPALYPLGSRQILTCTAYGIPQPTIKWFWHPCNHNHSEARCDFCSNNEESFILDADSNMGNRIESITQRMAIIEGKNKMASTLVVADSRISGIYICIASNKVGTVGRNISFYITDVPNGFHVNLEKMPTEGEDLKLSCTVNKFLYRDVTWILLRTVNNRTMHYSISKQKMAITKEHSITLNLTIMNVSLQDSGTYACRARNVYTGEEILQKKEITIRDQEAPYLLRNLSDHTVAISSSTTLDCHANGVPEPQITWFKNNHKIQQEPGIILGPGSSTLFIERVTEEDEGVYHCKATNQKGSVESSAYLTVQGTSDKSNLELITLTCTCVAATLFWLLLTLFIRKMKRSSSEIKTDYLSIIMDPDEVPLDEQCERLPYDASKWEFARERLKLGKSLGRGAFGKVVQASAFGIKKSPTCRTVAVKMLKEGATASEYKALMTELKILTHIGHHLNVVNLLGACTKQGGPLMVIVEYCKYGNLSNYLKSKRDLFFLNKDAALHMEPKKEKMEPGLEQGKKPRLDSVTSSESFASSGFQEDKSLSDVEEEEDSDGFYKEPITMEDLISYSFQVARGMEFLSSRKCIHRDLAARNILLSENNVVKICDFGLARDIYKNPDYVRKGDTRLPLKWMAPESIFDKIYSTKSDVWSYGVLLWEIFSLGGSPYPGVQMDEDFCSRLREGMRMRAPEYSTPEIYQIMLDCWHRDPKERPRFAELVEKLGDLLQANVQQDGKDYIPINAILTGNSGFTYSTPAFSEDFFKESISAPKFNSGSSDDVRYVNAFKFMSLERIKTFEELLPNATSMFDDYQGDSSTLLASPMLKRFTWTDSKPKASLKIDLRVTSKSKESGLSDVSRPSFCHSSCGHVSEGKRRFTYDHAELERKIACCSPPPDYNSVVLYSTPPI

[27] = Metabolic stability in human liver S9 fraction assessed as compound remaining after 2 hrs; format: ADME, subcellular; settings: read-out: Stability
[28] = Tmax in cynomolgus monkey at 3 mg/kg, po; format: ADME, organism-based, Macaca fascicularis; set-up: dose 3 mg/kg, route oral; settings: in vivo
[29] = Antiangiogenic activity in BAEC assessed as inhibition of FGF-induced survival; format: functional, Bos taurus
[30] = Half life in cynomolgus monkey at 3 mg/kg, po; format: ADME, organism-based, Macaca fascicularis; set-up: dose 3 mg/kg, route oral; settings: in vivo
[31] = system: Mus musculus; experiment: Toxicity in athymic nude mouse bearing human A375 cells assessed as body weight change at 0.1 to 10 mg/kg, po; format: organism-based, A-375; set-up: dose 0.1-10 mg/kg, route oral; settings: in vivo
[32] = Antitumor activity against human U251MG cells xenografted in athymic nude mouse assessed as complete tumor regression at 30 mg/kg, po bid; format: functional, U-251
[33] = system: HUVEC; experiment: Antiangiogenic activity in HUVEC assessed as inhibition of FGF-induced migration; format: functional, cell-based; settings: Homo sapiens
[34] = Antiangiogenic activity in BAEC assessed as inhibition of VEGF-induced migration; format: functional; settings: Bos taurus
[35] = Antiangiogenic activity in BAEC assessed as inhibition of FGF-induced migration; format: functional; settings: Bos taurus

**Q.** With `CC(C)Cn1c2ccc(Nc3ncccn3)cc2c2c3c(c4c(c21)CCc1nn(C)cc1-4)C(=O)NC3` [CEP-11981] as the compound, how does the IC50 [1] read?
**A.** Its IC50 is 20000 nM.

**Q.** What about the fraction unbound [2] of the same compound?
**A.** Its fraction unbound is 0.05.

**Q.** And the minimal effective dose [3]?
**A.** The minimal effective dose was 0.3 mg/kg.

**Q.** What about the minimal effective dose [4] of the same compound?
**A.** The minimal effective dose was 3 mg/kg.

**Q.** And the inhibition in vivo at 1 mg/kg [5]?
**A.** Its inhibition in vivo at 1 mg/kg is 43%.

**Q.** What about the Vd [6] of the same compound?
**A.** Its Vd is 1.3 L/kg.

**Q.** And the EC50 [7]?
**A.** Its EC50 is 8 nM.

**Q.** What about the EC50 [8] of the same compound?
**A.** The EC50 was 8 nM.

**Q.** What about the Activity [9] of the same compound?
**A.** Its Activity is “Non-toxic”.

**Q.** And the IC50 [10]?
**A.** The IC50 was 5 nM.

**Q.** What about the IC50 [11] of the same compound?
**A.** The IC50 was 37 nM.

**Q.** And the half-life [12]?
**A.** Its half-life is 1.9 h.

**Q.** What about the inhibition in vivo at 1 mg/kg [13] of the same compound?
**A.** The inhibition in vivo at 1 mg/kg was 73%.

**Q.** What about the AUC [14] of the same compound?
**A.** The AUC was 8560 ng·h/mL.

**Q.** And the EC50 [15]?
**A.** The EC50 was 8 nM.

**Q.** And the inhibition in vivo at 30 mg/kg [16]?
**A.** The inhibition in vivo at 30 mg/kg was 88%.

**Q.** And the Activity [17]?
**A.** The Activity was 20%.

**Q.** And the IC50 [18]?
**A.** Its IC50 is 42 nM.

**Q.** What about the Activity [19] of the same compound?
**A.** The Activity was “Non-toxic”.

**Q.** And the Activity [20]?
**A.** The Activity was 0%.

**Q.** What about the inhibition [21] of the same compound?
**A.** The inhibition was over 80%.

**Q.** And the Vd [22]?
**A.** Its Vd is 2.6 L/kg.

**Q.** What about the inhibition in vivo at 3 mg/kg [23] of the same compound?
**A.** Its inhibition in vivo at 3 mg/kg is 61%.

**Q.** What about the inhibition [24] of the same compound?
**A.** Its inhibition is “Active”.

**Q.** And the inhibition in vivo at 3 mg/kg [25]?
**A.** The inhibition in vivo at 3 mg/kg was 90%.

**Q.** And the IC50 [26]?
**A.** The IC50 was 3 nM.

**Q.** What about the remaining at 2 h [27] of the same compound?
**A.** The remaining at 2 h was 79%.

**Q.** And the Tmax [28]?
**A.** Its Tmax is 2 h.

**Q.** And the EC50 [29]?
**A.** Its EC50 is 8 nM.

**Q.** And the half-life [30]?
**A.** Its half-life is 2.4 h.

**Q.** What about the Activity [31] of the same compound?
**A.** Its Activity is “Non-toxic”.

**Q.** And the Activity [32]?
**A.** Its Activity is 0%.

**Q.** What about the EC50 [33] of the same compound?
**A.** Its EC50 is 8 nM.

**Q.** And the EC50 [34]?
**A.** Its EC50 is 8 nM.

**Q.** And the EC50 [35]?
**A.** Its EC50 is 8 nM.
